Patent publication US20200068890A1 (Person to Whom the Inventor is Obligated to Assign, priority 2017, published 2020)

tested on: T1, A. thaliana DHDPS; test: DHDPS-DHDPR coupled assay, dose response inhibitor assay; assay type: biochemical, Arabidopsis thaliana
T1 construct: AtDHDPS|10|0.00008; no borders, domain or tags given
Protocol: DHDPS enzyme activity was determined using the coupled assay in a Cary 4000 UV/Vis spectrophotometer at 340 nm in 1 cm acrylic cuvettes. A master mix was prepared for each reaction as per Table 1. Reaction mixtures containing enzymes, pyruvate, buffer and NADPH were incubated at 30° C. for 12 mins before the addition of ASA to initiate the reaction. The oxidation of NADPH to NADP^+ was then monitored at 340 nm at 30° C. as a function of time. The initial rate (ΔA340·min^−1) was calculated from the slope of the linear portion of the A340 versus time profile. All experiments were carried out in triplicate. The enzyme kinetic parameters, including KM values, were determined using the Michaelis-Menten equation (Equation 1). Unless otherwise stated, all kinetic data were fitted using the built-in equations in GraphPad Prism.
To determine/C50 values for the inhibitors, A. thaliana DHDPS enzyme activity was measured using the coupled assay (detailed above) in the presence of increasing concentrations of inhibitor. The initial rate was then plotted as a function of the log 10 of the inhibitor concentration and the/C50 determined according to Equation 2.

Row | IC50 [µM] | SMILES
1 | 69.8 | O=C(O)CN1C(=O)S/C(=C\c2ccc(C(=O)O)cc2)C1=O [Compound 25, (Z)-4-((3-(Carboxymethyl)-2,4-dioxothiazolidin-5-ylidene)methyl)benzoic Acid]
2 | 97.8 | O=C(O)CN1C(=O)S/C(=C\c2ccc(OC(F)(F)F)cc2)C1=O [Compound 27, (Z)-2-(2,4-Dioxo-5-(4-(trifluoromethoxy)benzylidene)thiazolidin-3-yl)acetic Acid]
3 | 71.6 | O=C(O)CN1C(=O)S/C(=C\c2cccs2)C1=O [Compound 30, (Z)-2-(2,4-Dioxo-5-(thiophen-2-ylmethylene)thiazolidin-3-yl)acetic Acid]
4 | 80.4 | O=C(O)CN1C(=O)S/C(=C\c2ccccn2)C1=O [Compound 34, (Z)-2-(2,4-Dioxo-5-(pyridin-2-ylmethylene)thiazolidin-3-yl)acetic Acid]
5 | 46 | COc1ccc(/C=C2\SC(=O)N(CC(=O)O)C2=O)cn1 [Compound 37, (Z)-2-(5-((6-Methoxypyridin-3-yl)methylene)-2,4-dioxothiazolidin-3-yl)acetic Acid]
6 | 97 | O=C(O)CN1C(=O)S/C(=C\c2cccc3ccccc23)C1=O [Compound 38, (Z)-2-(5-(Naphthalen-1-ylmethylene)-2,4-dioxothiazolidin-3-yl)acetic Acid]
7 | 76.1 | O=C(O)CN1C(=O)S/C(=C\c2ccc3ccccc3c2)C1=O [Compound 39, (Z)-2-(5-(Naphthalen-2-ylmethylene)-2,4-dioxothiazolidin-3-yl)acetic Acid]
8 | 71.4 | O=C(O)CN1C(=O)S/C(=C\c2ccc(OCc3ccccc3)cc2)C1=O [Compound 41]
9 | > 250 | COc1ccc(/C=C2\SC(=S)NC2=O)cc1 [Compound 46, (Z)-5-(4-Methoxybenzylidene)-2-thioxothiazolidin-4-one]
10 | 323 | COc1ccc(/C=C2\NC(=S)NC2=O)cc1 [Compound 47, (Z)-5-(4-Methoxybenzylidene)-2-thioxoimidazolidin-4-one]
11 | > 250 | COc1ccc(CC2SC(=O)N(CC(=O)O)C2=O)cc1 (stereo not shown) [Compound 52]

Second part, the compound before the results:

Row | SMILES | IC50 [µM]
12 | N#Cc1ccc(/C=C2\SC(=O)N(CC(=O)O)C2=O)cc1 [Compound 24, (Z)-2-(5-(4-Cyanobenzylidene)-2,4-dioxothiazolidin-3-yl)acetic Acid] | 79.6
13 | CCOc1ccc(/C=C2\SC(=O)N(CC(=O)O)C2=O)cc1 [Compound 26, (Z)-2-(5-(4-Ethoxybenzylidene)-2,4-dioxothiazolidin-3-yl)acetic Acid] | 71.6
14 | CSc1ccc(/C=C2\SC(=O)N(CC(=O)O)C2=O)cc1 [Compound 28, (Z)-2-(5-(4-(Methylthio)benzylidene)-2,4-dioxothiazolidin-3-yl)acetic Acid] | 125
15 | O=C(O)CN1C(=O)S/C(=C\c2ccc(C(F)(F)F)cc2)C1=O [Compound 29, (Z)-2-(2,4-Dioxo-5-(4-(trifluoromethyl)benzylidene)thiazolidin-3-yl)acetic Acid] | 122
16 | O=C(O)CN1C(=O)S/C(=C\c2ccsc2)C1=O [Compound 31, (Z)-2-(2,4-Dioxo-5-(thiophen-3-ylmethylene)thiazolidin-3-yl)acetic Acid] | 81.8
17 | O=C(O)CN1C(=O)S/C(=C\c2c[nH]cn2)C1=O [Compound 32, (Z)-2-(5-((1H-Imidazol-4-yl)methylene)-2,4-dioxothiazolidin-3-yl)acetic Acid] | 94
18 | CN(C)c1ccc(/C=C2\SC(=O)N(CC(=O)O)C2=O)cc1 [Compound 33, (Z)-2-(5-(4-(Dimethylamino)benzylidene)-2,4-dioxothiazolidin-3-yl)acetic Acid] | > 500
19 | O=C(O)CN1C(=O)S/C(=C\c2cccnc2)C1=O [Compound 35, (Z)-2-(2,4-Dioxo-5-(pyridin-3-ylmethylene)thiazolidin-3-yl)acetic Acid] | 138
20 | O=C(O)CN1C(=O)S/C(=C\c2ccncc2)C1=O [Compound 36, (Z)-2-(2,4-Dioxo-5-(pyridin-4-ylmethylene)thiazolidin-3-yl)acetic Acid] | 90.2
21 | O=C(O)CN1C(=O)S/C(=C\c2ccc3ccccc3n2)C1=O [Compound 40, 2-(2,4-Dioxo-5-(quinolin-2-ylmethylene)thiazolidin-3-yl)acetic Acid] | 110
22 | COc1ccc(/C=C2\SC(=S)N(CC(=O)O)C2=O)cc1 [Compound 43, (Z)-2-(5-(4-Methoxybenzylidene)-4-oxo-2-thioxothiazolidin-3-yl)acetic Acid] | 540
23 | COc1ccc(/C=C2\NC(=S)N(CC(=O)O)C2=O)cc1 [Compound 44, (Z)-2-(4-(4-Methoxybenzylidene)-5-oxo-2-thioxoimidazolidin-1-yl)acetic Acid] | 222
24 | COc1ccc(/C=C2\SC(=O)NC2=O)cc1 [Compound 45, (Z)-5-(4-Methoxybenzylidene)thiazolidine-2,4-dione] | 70.8
25 | COc1ccc(/C=C2\SC(=N)NC2=O)cc1 [Compound 48, (Z)-2-Imino-5-(4-methoxybenzylidene)thiazolidin-4-one] | 156
26 | COc1ccc(/C=C2\SC(=O)N(Cc3nnn[nH]3)C2=O)cc1 [Compound 49, (Z)-3-((1H-Tetrazol-5-yl)methyl)-5-(4-methoxybenzylidene)thiazolidine-2,4-dione] | 89.1
27 | COc1ccc(/C=C2\SC(=O)N(CCC(=O)O)C2=O)cc1 [Compound 50, (Z)-3-(5-(4-Methoxybenzylidene)-2,4-dioxothiazolidin-3-yl)propanoic Acid] | > 250
28 | COc1ccc(/C=C2\SC(=O)N(CCCC(=O)O)C2=O)cc1 [Compound 51, (Z)-4-(5-(4-Methoxybenzylidene)-2,4-dioxothiazolidin-3-yl)butanoic Acid] | 66.8
